{"source": "paper PMC12396409", "about": "“Screening and hit evaluation of a microbial metabolite library against the pathogenic Plasmodium falciparum and Toxoplasma gondii parasites” (International Journal for Parasitology: Drugs and Drug …, 2025)", "key": {"[1]": {"test_system": "P. falciparum 3D7 parasites", "assay": "P. falciparum growth inhibition assay, 1-cycle (72 h treatment), SYBR DNA staining (library screen at 2 μg/mL and dose-response)", "assay_type": "cell-based, Plasmodium falciparum", "details": "for Pf_72h_%Growth_Rep1 / Pf_72h_%Growth_Rep2 / activity at 2 µg/mL: 72 h; for activity at 2 µg/mL: Plasmodium falciparum"}, "[2]": {"test_system": "T. gondii RH strain (RH-Tub-eYFP) tachyzoites", "assay": "microbe, parasite or virus in culture", "assay_type": "cell-based, Toxoplasma gondii", "details": "72 h; for percent parasite growth at 2 µg/mL: Toxoplasma gondii"}, "[3]": {"test_system": "P. falciparum 3D7 parasites", "assay": "P. falciparum growth inhibition assay, 2-cycle (120 h treatment), delayed-death screen and dose-response", "assay_type": "cell-based, Plasmodium falciparum", "details": "120 h; for activity at 2 µg/mL: Plasmodium falciparum"}, "[4]": {"details": "P. falciparum, screen at 2 μg/mL, replicate 1"}, "[5]": {"details": "P. falciparum, screen at 2 μg/mL, replicate 2"}, "[6]": {"details": "T. gondii, screen at 2 μg/mL, replicate 1"}, "[7]": {"details": "T. gondii, screen at 2 μg/mL, replicate 2"}, "[8]": {"details": "3D7, 72 h, P. falciparum, screen at 2 μg/mL, replicate 1, read-out: Pf_72h_%Growth_Rep1"}, "[9]": {"details": "3D7, 72 h, P. falciparum, screen at 2 μg/mL, replicate 2, read-out: Pf_72h_%Growth_Rep2"}, "[10]": {"details": "T. gondii, screen at 2 μg/mL, replicate 1, read-out: Tg_72h_%Growth_Rep1"}, "[11]": {"details": "T. gondii, screen at 2 μg/mL, replicate 2, read-out: Tg_72h_%Growth_Rep2"}, "[12]": {"details": "3D7, 120 h, P. falciparum, screen at 2 μg/mL, replicate 1, read-out: Pf_120h_%Growth_Rep1"}, "[13]": {"details": "3D7, 120 h, P. falciparum, screen at 2 μg/mL, replicate 2, read-out: Pf_120h_%Growth_Rep2"}, "[14]": {"details": "library screen at 2 μg/mL, % growth, replicate 1, read-out: Tg_72h_%Growth_Rep1"}, "[15]": {"details": "library screen at 2 μg/mL, % growth, replicate 2, read-out: Tg_72h_%Growth_Rep2"}, "[16]": {"details": "library screen at 2 μg/mL, % growth, replicate 1"}, "[17]": {"details": "library screen at 2 μg/mL, % growth, replicate 2"}}, "note": "Like-named read-outs stand apart in the source and are kept apart here. Where a SMILES comes first, the peptide text is derived from it. [ ]: non-standard residue; d: D form. GABA = NCCCC(=O)O"}
{"compound": "CC(C)[C@H]1NC(=O)[C@H](Cc2ccccc2)NC(=O)[C@@H](C(C)C)NC(=O)[C@@H](C)NC(=O)CCCNC(=O)[C@@H](Cc2c[nH]c3ccccc23)NC(=O)[C@@H](C)NC1=O", "note": "[Unguisin A] (cyclo(F[dV][dA][dW][GABA][dA][dV]))", "values": [{"measurement": "Pf_72h_%Growth_Rep1", "setting": "[1]; [4]", "value": 89.83, "unit": "%"}, {"measurement": "Pf_72h_%Growth_Rep2", "setting": "[1]; [5]", "value": 117.62, "unit": "%"}, {"measurement": "Tg_72h_%Growth_Rep1", "setting": "[2]; [6]", "value": 121.37, "unit": "%"}, {"measurement": "Tg_72h_%Growth_Rep2", "setting": "[2]; [7]", "value": 69.01, "unit": "%"}, {"measurement": "Pf_120h_%Growth_Rep1", "setting": "[3]; [4]", "value": 110.43, "unit": "%"}, {"measurement": "Pf_120h_%Growth_Rep2", "setting": "[3]; [5]", "value": -17.05, "unit": "%"}]}
{"compound": "CC(=O)C1=C(O)[C@@H]2[C@H]3c4c[nH]c5cccc(c45)C[C@H]3C(C)(C)N2C1=O", "note": "[Cyclopiazonic acid]", "values": [{"measurement": "activity at 2 µg/mL", "setting": "[1]; [8]", "value": 12.6, "unit": "%"}, {"measurement": "activity at 2 µg/mL", "setting": "[1]; [9]", "value": 7.26, "unit": "%"}, {"measurement": "percent parasite growth at 2 µg/mL", "setting": "[2]; [10]", "value": 0.36, "unit": "%"}, {"measurement": "percent parasite growth at 2 µg/mL", "setting": "[2]; [11]", "value": 3.22, "unit": "%"}, {"measurement": "activity at 2 µg/mL", "setting": "[3]; [12]", "value": 14, "unit": "%"}, {"measurement": "activity at 2 µg/mL", "setting": "[3]; [13]", "value": 9.35, "unit": "%"}]}
{"compound": "COc1cc(-c2ccc(O)cc2)c(OC)c(O)c1-c1ccc(O)cc1", "note": "[Terphenyllin]", "values": [{"measurement": "activity at 2 µg/mL", "setting": "[1]; 3D7, P. falciparum, screen at 2 μg/mL, replicate 1, read-out: Pf_72h_%Growth_Rep1", "value": 87.2, "unit": "%"}, {"measurement": "activity at 2 µg/mL", "setting": "[1]; 3D7, P. falciparum, screen at 2 μg/mL, replicate 2, read-out: Pf_72h_%Growth_Rep2", "value": 91.8, "unit": "%"}, {"measurement": "percent parasite growth at 2 µg/mL", "setting": "[2]; [10]", "value": 84.9, "unit": "%"}, {"measurement": "percent parasite growth at 2 µg/mL", "setting": "[2]; [11]", "value": 103, "unit": "%"}, {"measurement": "activity at 2 µg/mL", "setting": "[3]; 3D7, P. falciparum, screen at 2 μg/mL, replicate 1, read-out: Pf_120h_%Growth_Rep1", "value": 179, "unit": "%"}, {"measurement": "activity at 2 µg/mL", "setting": "[3]; 3D7, P. falciparum, screen at 2 μg/mL, replicate 2, read-out: Pf_120h_%Growth_Rep2", "value": 102, "unit": "%"}]}
{"compound": "CO[C@@H]1[C@H](OC(=O)/C=C/C=C/C=C/C=C/C(=O)O)CC[C@]2(CO2)[C@H]1[C@@]1(C)O[C@@H]1CC=C(C)C", "note": "[Fumagillin]", "values": [{"measurement": "activity at 2 µg/mL", "setting": "[1]; 3D7, 72 h, library screen at 2 μg/mL, % growth, replicate 1, read-out: Pf_72h_%Growth_Rep1", "value": 10.6, "unit": "%"}, {"measurement": "activity at 2 µg/mL", "setting": "[1]; 3D7, 72 h, library screen at 2 μg/mL, % growth, replicate 2, read-out: Pf_72h_%Growth_Rep2", "value": 6.01, "unit": "%"}, {"measurement": "percent parasite growth at 2 µg/mL", "setting": "[2]; [14]", "value": 31, "unit": "%"}, {"measurement": "percent parasite growth at 2 µg/mL", "setting": "[2]; [15]", "value": 30.7, "unit": "%"}, {"measurement": "activity at 2 µg/mL", "setting": "[3]; 3D7, 120 h, library screen at 2 μg/mL, % growth, replicate 1, read-out: Pf_120h_%Growth_Rep1", "value": 7.49, "unit": "%"}, {"measurement": "activity at 2 µg/mL", "setting": "[3]; 3D7, 120 h, library screen at 2 μg/mL, % growth, replicate 2, read-out: Pf_120h_%Growth_Rep2", "value": 7.63, "unit": "%"}]}
{"compound": "CCCCCCCCCC(=O)N[C@H]1CCOC1=O", "note": "[Decanoyl-L-homoserine lactone]", "values": [{"measurement": "Pf_72h_%Growth_Rep1", "setting": "[1]; [4]", "value": 85.38, "unit": "%"}, {"measurement": "Pf_72h_%Growth_Rep2", "setting": "[1]; [5]", "value": 85.76, "unit": "%"}, {"measurement": "Tg_72h_%Growth_Rep1", "setting": "[2]; [6]", "value": 132.23, "unit": "%"}, {"measurement": "Tg_72h_%Growth_Rep2", "setting": "[2]; [7]", "value": 94.38, "unit": "%"}, {"measurement": "Pf_120h_%Growth_Rep1", "setting": "[3]; [4]", "value": 108.94, "unit": "%"}, {"measurement": "Pf_120h_%Growth_Rep2", "setting": "[3]; [5]", "value": 93.89, "unit": "%"}]}
{"compound": "CC(=O)OC[C@]12CCC(C)=C[C@H]1O[C@@H]1[C@H](O)[C@@H](O)[C@@]2(C)[C@]12CO2", "note": "[Acetoxyscirpenol, 15-]", "values": [{"measurement": "Pf_72h_%Growth_Rep1", "setting": "[1]; [16]", "value": 9.02, "unit": "%"}, {"measurement": "Pf_72h_%Growth_Rep2", "setting": "[1]; [17]", "value": 0.50, "unit": "%"}, {"measurement": "Tg_72h_%Growth_Rep1", "setting": "[2]; [16]", "value": -2.14, "unit": "%"}, {"measurement": "Tg_72h_%Growth_Rep2", "setting": "[2]; [17]", "value": 0.34, "unit": "%"}, {"measurement": "Pf_120h_%Growth_Rep1", "setting": "[3]; [16]", "value": 8.73, "unit": "%"}, {"measurement": "Pf_120h_%Growth_Rep2", "setting": "[3]; [17]", "value": 7.76, "unit": "%"}]}
{"compound": "O=C(O)/C=C/c1c[nH]cn1", "note": "[Urocanic acid]", "values": [{"measurement": "activity at 2 µg/mL", "setting": "[1]; [8]", "value": 79.2, "unit": "%"}, {"measurement": "activity at 2 µg/mL", "setting": "[1]; [9]", "value": 89.3, "unit": "%"}, {"measurement": "percent parasite growth at 2 µg/mL", "setting": "[2]; [10]", "value": 81, "unit": "%"}, {"measurement": "percent parasite growth at 2 µg/mL", "setting": "[2]; [11]", "value": 70.9, "unit": "%"}, {"measurement": "activity at 2 µg/mL", "setting": "[3]; [12]", "value": 81.3, "unit": "%"}, {"measurement": "activity at 2 µg/mL", "setting": "[3]; [13]", "value": 51.9, "unit": "%"}]}
{"compound": "C/C(=C\\C(=O)OCCCCCCCCC(=O)O)C[C@@H]1OC[C@H](C[C@@H]2O[C@H]2[C@@H](C)[C@H](C)O)[C@@H](O)[C@H]1O", "note": "[Pseudomonic acid]", "values": [{"measurement": "activity at 2 µg/mL", "setting": "[1]; 3D7, P. falciparum, parasite screen 2 μg/mL, % growth, replicate 1, read-out: Pf_72h_%Growth_Rep1", "value": 29.1, "unit": "%"}, {"measurement": "activity at 2 µg/mL", "setting": "[1]; 3D7, P. falciparum, parasite screen 2 μg/mL, % growth, replicate 2, read-out: Pf_72h_%Growth_Rep2", "value": 6.31, "unit": "%"}, {"measurement": "percent parasite growth at 2 µg/mL", "setting": "[2]; T. gondii, parasite screen 2 μg/mL, % growth, replicate 1, read-out: Tg_72h_%Growth_Rep1", "value": 70.8, "unit": "%"}, {"measurement": "percent parasite growth at 2 µg/mL", "setting": "[2]; T. gondii, parasite screen 2 μg/mL, % growth, replicate 2, read-out: Tg_72h_%Growth_Rep2", "value": 74.5, "unit": "%"}, {"measurement": "activity at 2 µg/mL", "setting": "[3]; 3D7, P. falciparum, parasite screen 2 μg/mL, % growth, replicate 1, read-out: Pf_120h_%Growth_Rep1", "value": 0.62, "unit": "%"}, {"measurement": "activity at 2 µg/mL", "setting": "[3]; 3D7, P. falciparum, parasite screen 2 μg/mL, % growth, replicate 2, read-out: Pf_120h_%Growth_Rep2", "value": 28.1, "unit": "%"}]}
{"compound": "CCc1c(Cl)c(O)c(Cl)c(O)c1C(=O)O[C@H]1[C@H](O)[C@H](OC)[C@H](OC/C2=C\\C=C\\C[C@H](O)/C(C)=C/[C@H](CC)[C@@H](O[C@@H]3OC(C)(C)[C@@H](OC(=O)C(C)C)[C@H](O)[C@@H]3O)/C(C)=C/C(C)=C/C[C@@H]([C@@H](C)O)OC2=O)O[C@@H]1C", "note": "[fidaxomicin, reference compound]", "values": [{"measurement": "activity at 2 µg/mL", "setting": "[1]; 3D7, library screen at 2 μg/mL, % growth, replicate 1, read-out: Pf_72h_%Growth_Rep1", "value": 3.04, "unit": "%"}, {"measurement": "activity at 2 µg/mL", "setting": "[1]; 3D7, library screen at 2 μg/mL, % growth, replicate 2, read-out: Pf_72h_%Growth_Rep2", "value": -1.42, "unit": "%"}, {"measurement": "selectivity for P. falciparum in the screens", "setting": "[1]; active against the parasite at 2 μg/mL, no anti-tumour (NS-1) or cytotoxic (fibroblast) activity at 5 μg/mL", "value": "selective for P. falciparum"}, {"measurement": "percent parasite growth at 2 µg/mL", "setting": "[2]; [14]", "value": 85.9, "unit": "%"}, {"measurement": "percent parasite growth at 2 µg/mL", "setting": "[2]; [15]", "value": 92.4, "unit": "%"}, {"measurement": "activity at 2 µg/mL", "setting": "[3]; 3D7, library screen at 2 μg/mL, % growth, replicate 1, read-out: Pf_120h_%Growth_Rep1", "value": 13.8, "unit": "%"}, {"measurement": "activity at 2 µg/mL", "setting": "[3]; 3D7, library screen at 2 μg/mL, % growth, replicate 2, read-out: Pf_120h_%Growth_Rep2", "value": -3.62, "unit": "%"}]}
